Measured values as given in patent US20060141027A1, “Sublingual administration of non-steroidal anti-inflammatory pharmacological substances” (priority 2003, published 2006).

Test: experimentation on patients: sublingual versus traditional oral administration of FANS
Format: in vivo
Details: sublingual administration compared with oral formulation of the same agent
From the text: In the performed experimentation, the used sublingual preparations consisted of tablets which can be separated in two parts.

| Structure (SMILES) | therapeutic dose necessary for obtaining the desired anti-inflammatory effect |
| --- | --- |
| CS(=O)(=O)Nc1ccc([N+](=O)[O-])cc1Oc1ccccc1 [nimesulid, nimesulide] | reduction of the therapeutic dosage |
| O=C(O)Cc1ccccc1Nc1c(Cl)cccc1Cl [diclofenac] | reduction of the therapeutic dosage |
| CC(C(=O)O)c1cccc(C(=O)c2ccccc2)c1 (centres unmarked) [ketoprofen] | reduction of the therapeutic dosage |
| CC(C)Cc1ccc(C(C)C(=O)O)cc1 (centres unmarked) [ibuprofen] | reduction of the therapeutic dosage |
| CC(=O)Nc1ccc(O)cc1 [paracetamol] | reduction of the therapeutic dosage |
